Here are results for five compounds from patent US20210396743A1 (priority 2020, published 2021).

SMILES strings stand for the structures. Entries after “also recorded” stand apart in the source; their conditions may differ. Read-outs that look alike come from different tables or passages of the source. Residues, ends and D or L forms follow the SMILES beside them.

For assay [1], the target named is T1, SdeA181-1000 (Legionella pneumophila subsp. pneumophila, UniProt Q5ZTK4). It counts as biochemical, L. pneumophila.
T1 sequence (Q5ZTK4 181-1000 limits assumed): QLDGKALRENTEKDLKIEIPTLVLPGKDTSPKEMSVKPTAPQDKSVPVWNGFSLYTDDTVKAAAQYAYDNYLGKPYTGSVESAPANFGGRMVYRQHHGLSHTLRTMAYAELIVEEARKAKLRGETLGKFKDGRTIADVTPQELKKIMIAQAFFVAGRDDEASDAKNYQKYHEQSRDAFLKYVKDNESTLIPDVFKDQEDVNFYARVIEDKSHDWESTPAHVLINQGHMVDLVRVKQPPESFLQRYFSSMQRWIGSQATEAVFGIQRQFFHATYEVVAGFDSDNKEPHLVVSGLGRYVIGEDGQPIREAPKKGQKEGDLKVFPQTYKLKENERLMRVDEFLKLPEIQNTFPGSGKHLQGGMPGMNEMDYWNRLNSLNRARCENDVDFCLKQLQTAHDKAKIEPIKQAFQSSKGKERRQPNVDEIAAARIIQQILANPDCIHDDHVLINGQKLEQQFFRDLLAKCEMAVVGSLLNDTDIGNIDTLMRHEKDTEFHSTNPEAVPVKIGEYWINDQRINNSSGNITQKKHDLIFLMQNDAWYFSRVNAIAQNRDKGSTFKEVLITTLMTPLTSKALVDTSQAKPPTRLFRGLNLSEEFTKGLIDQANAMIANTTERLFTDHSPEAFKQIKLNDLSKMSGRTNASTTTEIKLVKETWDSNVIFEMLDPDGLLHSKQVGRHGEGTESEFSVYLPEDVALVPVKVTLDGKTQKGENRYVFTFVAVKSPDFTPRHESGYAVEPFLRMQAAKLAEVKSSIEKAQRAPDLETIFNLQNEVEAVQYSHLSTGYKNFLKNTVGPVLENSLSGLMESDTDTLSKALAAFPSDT
Assay [2] addresses T1, SdeA181-1000. It counts as biochemical, L. pneumophila. The source holds these as a separate data set.
For assay [3], the system named is SdeA. The assay is classed as biochemical, L. pneumophila. Conditions: 100 μM analogue, 100 μM ubiquitin, 0.5 μM enzyme, emission 410 nm.
Assay [4] addresses T1, SdeA181-1000. It counts as biochemical, L. pneumophila. The source holds these as a separate data set.
The target of assay [5] is SdeA (Legionella pneumophila subsp. pneumophila, UniProt Q5ZTK4). Conditions: cited from earlier work.
SdeA (Legionella pneumophila subsp. pneumophila, UniProt Q5ZTK4), sequence (Q5ZTK4 whole entry, looked up): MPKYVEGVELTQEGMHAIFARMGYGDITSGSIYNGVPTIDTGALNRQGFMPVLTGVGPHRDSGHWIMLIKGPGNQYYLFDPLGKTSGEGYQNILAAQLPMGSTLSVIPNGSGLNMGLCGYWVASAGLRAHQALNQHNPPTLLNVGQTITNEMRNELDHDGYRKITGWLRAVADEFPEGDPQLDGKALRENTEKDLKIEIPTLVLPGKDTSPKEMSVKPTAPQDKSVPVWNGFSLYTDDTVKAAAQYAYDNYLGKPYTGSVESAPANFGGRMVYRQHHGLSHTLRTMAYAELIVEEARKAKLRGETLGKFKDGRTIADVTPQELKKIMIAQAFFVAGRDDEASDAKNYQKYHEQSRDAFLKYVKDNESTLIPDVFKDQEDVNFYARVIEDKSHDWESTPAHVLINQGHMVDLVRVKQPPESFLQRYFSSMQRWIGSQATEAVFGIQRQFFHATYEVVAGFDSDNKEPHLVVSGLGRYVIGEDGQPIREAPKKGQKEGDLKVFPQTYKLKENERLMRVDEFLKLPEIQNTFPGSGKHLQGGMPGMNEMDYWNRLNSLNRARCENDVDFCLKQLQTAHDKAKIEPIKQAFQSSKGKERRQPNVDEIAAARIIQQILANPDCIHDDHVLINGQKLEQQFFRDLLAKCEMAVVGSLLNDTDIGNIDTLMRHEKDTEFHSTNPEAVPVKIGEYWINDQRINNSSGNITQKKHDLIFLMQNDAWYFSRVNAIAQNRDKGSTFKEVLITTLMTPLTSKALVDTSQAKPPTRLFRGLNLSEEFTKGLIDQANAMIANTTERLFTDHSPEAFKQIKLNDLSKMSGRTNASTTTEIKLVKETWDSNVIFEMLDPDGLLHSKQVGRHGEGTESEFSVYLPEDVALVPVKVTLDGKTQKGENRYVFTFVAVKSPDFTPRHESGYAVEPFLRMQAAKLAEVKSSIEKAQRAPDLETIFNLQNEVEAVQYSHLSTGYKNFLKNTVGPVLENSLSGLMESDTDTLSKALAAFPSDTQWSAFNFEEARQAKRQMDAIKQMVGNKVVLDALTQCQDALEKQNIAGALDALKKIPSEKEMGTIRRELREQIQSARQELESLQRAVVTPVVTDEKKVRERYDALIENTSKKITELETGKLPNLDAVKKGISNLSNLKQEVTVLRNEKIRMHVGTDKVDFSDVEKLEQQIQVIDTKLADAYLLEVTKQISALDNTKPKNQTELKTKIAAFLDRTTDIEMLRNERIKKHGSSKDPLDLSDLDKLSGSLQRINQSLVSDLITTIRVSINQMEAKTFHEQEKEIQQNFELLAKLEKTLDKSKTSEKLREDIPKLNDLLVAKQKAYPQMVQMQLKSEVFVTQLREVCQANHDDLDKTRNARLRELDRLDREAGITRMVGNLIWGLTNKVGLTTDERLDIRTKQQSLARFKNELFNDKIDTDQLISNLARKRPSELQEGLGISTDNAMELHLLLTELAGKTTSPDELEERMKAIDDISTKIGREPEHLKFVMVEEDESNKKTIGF

Broadly, the Km is the substrate concentration at which the rate is half of its maximum. For the compound `CSCC[C@H](NC(=O)c1ccc(-c2c3ccc(=O)cc-3oc3cc(O)ccc23)c(C(=O)O)c1)C(=O)N[C@@H](CO)C(=O)N[C@@H](CO)C(=O)N[C@@H](CCSC)C(=O)N[C@@H](CC(N)=O)C(=O)N1CCC[C@H]1C(=O)N[C@@H](CCC(=O)O)C(=O)N[C@@H](Cc1ccc(O)cc1)C(=O)N[C@@H](CC(=O)O)C(N)=O` [peptide] (HELM PEPTIDE1{[O=C(O)c1cc(C(=O)[*:2])ccc1-c1c2ccc(=O)cc-2oc2cc(O)ccc12].M.S.S.M.N.P.E.Y.D.[am]}$$$$V2.0), the “ubiquitination of peptide by SdeA (fluorescence polarization)” value at SdeA181-1000 [1] is “significant increase in FP”. Further, the Km at SdeA181-1000 [1] (read-out: apparent KM) is about 80 µM. Moreover, the “in-gel fluorescence of ubiquitinated peptide (SDS-PAGE)” value on SdeA181-1000 [2] was “presence of a fluorescent band around 10 kDa”.

Consider `NC(=O)c1ccc[n+]([C@@H]2O[C@H](COP(=O)(O)OP(=O)([O-])OC[C@H]3O[C@@H](c4snc5c(N)ncnc45)C(O)C3O)C(O)C2O)c1` (some centres unmarked) [N^tzAD^+], for which the “fluorescence increase on incubation with SdeA and Ub” value in the assay on SdeA [3] (listed as NtzAD+) is “lower fold increase in fluorescence intensity”.

For the compound `Nc1ncnc2c1ncn2[C@@H]1O[C@H](COP(=O)(O)OP(=O)(O)OC[C@H]2OC(O)[C@H](O)[C@@H]2O)[C@@H](O)[C@H]1O` (some centres unmarked) [ADP-ribose], the “inhibition of peptide ubiquitination” value against SdeA181-1000 [4] is reported as “inhibition of peptide ubiquitination; also recorded: impairment of peptide ubiquitination”.

`Nc1ncnc2c1ncn2[C@@H]1O[C@H](COP(=O)(O)O)[C@@H](O)[C@H]1O` [AMP, adenosine monophosphate]: at SdeA [5], the “inhibitor of SdeA-catalyzed ubiquitination (previous study)” value is on record as “weak inhibitor”. Moreover, on SdeA181-1000 [4], the “inhibition of peptide ubiquitination” value was “inhibition of peptide ubiquitination; also recorded: impairment of peptide ubiquitination”.

On to `NC(=O)c1ccc[n+]([C@@H]2O[C@H](COP(=O)([O-])OP(=O)([O-])OC[C@H]3O[C@@H](n4cnc5c4nc[n+]4cc[nH]c54)C(O)[C@H]3O)[C@H](O)C2O)c1` (some centres unmarked) [εNAD^+, nicotinamide 1,N6-ethenoadenine dinucleotide], for which, in the assay with SdeA [3], the “fluorescence increase on incubation with SdeA and Ub” value was “increase in fluorescence emission at 410 nm”.
